According to patent US20240423977A1, “FIVE-MEMBERED RING-FUSED SIX-MEMBERED RING COMPOUND, PREPARATION METHOD THEREFOR, AND PHARMACEUTICAL COMPOSITION AND USE THEREOF” (HANGZHOU POLYMED BIOPHARMACEUTICALS, INC., priority 2022, published 2024):

Tests used:
[1] = target: IRAK4 protein in THP-1 cells (Homo sapiens (Human), UniProt Q9NWZ3); assay: PROTAC-induced IRAK4 protein degradation in THP-1 cells (Western Blot); assay type: cell-based; settings: for DC50: concentration that degraded 50% of IRAK4, Western blotting, 24 hours after administration; for IRAK4 degradation rate 24 hours after administration of the compounds with a concentration of 1 μM: Western blotting
Experimental: 2.1 Based on the experimental method of Western Blot, specific antibodies were used to stain the THP-1 cell samples treated by gel electrophoresis, and the degrading activity of the compounds on the IRAK4 protein in THP-1 cells was determined by analyzing the position and depth of staining. The concentrations of compound for the detection included 0 μM, 0.3 μM, 1 μM and 3 μM, and the cells were treated by the compound for 8 hours, 16 hours, 24 hours, and 48 hours. Glyceraldehyde-3-phosphate dehydrogenase (GAPDH) is an internal reference protein in this experiment.
Electrophoresis buffer: 50 mL MOPS SDS Running Buffer (20×) and 50 mL 20×TBS Tween-20 buffer were diluted with deionized water to 1 L as the electrophoresis buffer;
5% skim milk (w/v): 2.5 g skim milk was diluted with 50 mL 1×TBS Tween-20 buffer to prepare 5% skim milk;
5% BSA (w/v): 2.5 g BSA was diluted with 50 mL 1×TBS Tween-20 buffer to prepare 5% BSA;
Anti-IRAK4 antibody was diluted with 5% BSA at 1:1000 into a primary antibody working solution;
Goat Anti-Rabbit IgG H&L (HRP) was diluted with 5% BSA at 1:2000 into a second antibody working solution; and
Goat Anti-Mouse IgG H&L (HRP) was diluted with 5% BSA at 1:2000 into a second antibody working solution.
THP-1 cells were plated in a 6-well plate at a density of 1.5×10^6 cells per ml and incubated for 2 hours in a cell culture incubator under 37° C. and 5% CO2. The compound was diluted with DMSO to 0.6 mM, 0.2 mM and 0.06 mM respectively. 10 μL of compound solution was added to the corresponding wells, and continued to incubate in the incubator for 16 hours, 24 hours and 48 hours respectively. The compound-treated THP-1 cells in the well were collected, added with 120 μL of RIPA lysate containing protease inhibitor, Phosphatase Inhibitor Cocktail 2 and Phosphatase Inhibitor Cocktail 3, lysed on wet ice for 30 minutes, and then the cells lysate was centrifuged at a high speed and a low temperature for 5 minutes to collect the supernatant. The protein concentration of the cell sample was determined according to the instructions in the Pierce™ BCA Protein Assay Kit.
The concentration of the sample was adjusted to be consistent using lysis buffer and NuPAGE® LDS sample buffer containing 1M DTT. The samples were heated at 95° C. for 5 minutes and centrifuged at a low temperature and at a high speed. 20 μL of the prepared protein sample and 4 μL of PageRuler Prestained Protein Ladder were added into the gel well for running at 80V voltage for 0.5 hours, then the voltage was adjusted to 120V for further running for 1.5 hours. The gel was removed and the proteins in the gel were transferred to the IBlotTM 2 transfer membrane set at 20V. After successful transfer, bands at 65 kDa-40 kDa and 40 kDa-30 kDa were cut respectively. The membranes were blocked with 5% skim milk for 1 hour at room temperature. The membranes were washed three times with 1× concentration of TBST, then incubated with IRAK4 antibody working solution overnight at 4° C. The IRAK4 antibody working solution was discarded, and the membranes were washed three times with 1×concentration of TBST, and incubated with Goat Anti-Rabbit IgG H&L (HRP) working solution and Goat Anti-Mouse IgG H&L (HRP) working solution at room temperature. After 1 hour of incubation, the antibody working solution was discarded and the membranes were washed three times with 1× concentration of TBST. According to the instructions of the kit SuperSignal™ West Femto Maximum Sensitivity Substrate, the reagents in the kit were mixed in equal volume proportions to prepare a luminescent liquid mixture. The membranes were incubated for 1 minute, then removed for exposure.
The results of Western blotting 24 hours after administration of the compounds with a concentration of 1 μM were shown in Table 3: […]

[2] = target: kinase IRAK4 (Homo sapiens (Human), UniProt Q9NWZ3); assay: Inhibitory effects of compounds on kinase activity (fluorescence microfluidic mobility detection, competitive with ATP); assay type: biochemical; settings: IRAK4 6 nM, ATP 10 μM
Experimental: Based on an experimental method of fluorescence microfluidic mobility detection, an IC50 value of competitive binding of kinase IRAK4 to ATP by the compounds was determined. The initial detection concentration of the compounds was 10 μM, diluted 4-fold gradient down to […], and tested in duplicate. Among them, commercial staurosporine was the standard control substance in this experiment.
1) IRAK4 kinase was dissolved in kinase buffer (50 mM HEPES pH 7.5, 10 mM MgCl2, 2 mM DTT and 0.01% Brij-35) to a final concentration of 6 nM.
2) The substrate peptide FAM-P8 and ATP were dissolved in the above kinase buffer. The final concentrations of the IRAK4 substrate peptide FAM-P8 and ATP were 3 μM and 10 μM respectively.
3) Dilution of the compounds: the compound was first diluted to 50 μM, and then diluted down with a 4-fold gradient of DMSO. The solution without the compound and kinase is used as a blank control, corresponding to the “minimum value” shown below; and the solution without the compound but with kinase, adenosine 5′-triphosphate disodium salt hydrate, DMSO and buffer is used as a positive control, corresponding to the “maximum value” shown below. 4) Kinase reaction and termination: 10 μL of kinase buffer was added to a 384-well plate containing 5 μL of the compound to be tested, and incubated at room temperature for 10 minutes. Another 10 μL of buffer containing the substrate peptide and adenosine 5′-triphosphate disodium salt hydrate was added to the 384-well plate. After incubation at 28° C. for one hour, 25 μL stop solution (100 mM HEPES pH 7.5, 50 mM EDTA, 0.2% Coating Reagent #3 and 0.015% Brij-35) was added to each well to terminate the reaction.
5) Data reading: the CaliperEZ Reader II instrument was used to read the conversion rate data. Conditions: downstream voltage −500V, upstream voltage −2250V, base pressure −0.5 PSI, and screening pressure −1.2 PSI.
6) Data calculation: the conversion rate data was copied from CaliperEZ Reader II and converted into inhibition rate data. The calculation formula is as follows:
[formula] • IC50 values were fitted using XLFit excel add-in version 5.4.0.8,
Y=Bottom+(Top−Bottom)/(1+(IC50/X)^HillSlope) Fitting formula: […]

Sequence of IRAK4 protein in THP-1 cells (Q9NWZ3 whole entry): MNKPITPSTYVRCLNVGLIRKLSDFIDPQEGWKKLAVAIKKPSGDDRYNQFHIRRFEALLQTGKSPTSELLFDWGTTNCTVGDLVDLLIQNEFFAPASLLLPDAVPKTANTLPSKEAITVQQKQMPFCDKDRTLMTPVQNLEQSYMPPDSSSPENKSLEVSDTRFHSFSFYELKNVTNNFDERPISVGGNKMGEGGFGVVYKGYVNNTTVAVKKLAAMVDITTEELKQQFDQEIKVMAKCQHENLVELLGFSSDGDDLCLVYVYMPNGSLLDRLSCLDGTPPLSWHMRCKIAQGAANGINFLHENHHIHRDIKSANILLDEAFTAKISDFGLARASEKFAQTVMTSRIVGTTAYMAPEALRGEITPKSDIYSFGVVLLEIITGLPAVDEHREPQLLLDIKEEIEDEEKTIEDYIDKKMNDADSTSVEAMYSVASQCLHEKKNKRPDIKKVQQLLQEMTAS
Sequence of kinase IRAK4 (Q9NWZ3 whole entry): as above

| DC50 [1] | IC50 ([2]; Table 2, substrate FAM-P8 3 μM) | IRAK4 degradation rate 24 hours after administration of the compounds with a concentration of 1 μM [1] | IC50 ([2]; Table 1, class symbols) | SMILES |
| --- | --- | --- | --- | --- |
| 5.53 nM | 9.17 nM |  |  | COc1cc2nn(C3CC4(CCN(C(=O)C5CCN(c6ccc7c(c6)C(=O)N(C6CCC(=O)NC6=O)C7=O)CC5)CC4)C3)cc2cc1NC(=O)c1ccn(C(F)F)n1 (centres unmarked) [Compound I-47] |
| > 1000 nM | 138 nM |  |  | O=C1CCC(N2C(=O)c3ccc(N4CCC(C(=O)N5CCC6(CC5)CC(n5cc7cc(NC(=O)c8cccc(C(F)(F)F)n8)c(F)cc7n5)C6)CC4)cc3C2=O)C(=O)N1 (centres unmarked) [Compound I-53] |
| 3.6 nM | 11.3 nM |  |  | CC(C)(O)c1cc2nn(C3CC4(CCN(C(=O)C5CCN(c6ccc7c(c6)C(=O)N(C6CCC(=O)NC6=O)C7=O)CC5)CC4)C3)cc2cc1NC(=O)c1cccc(C(F)(F)F)n1 (centres unmarked) [Compound I-5] |
| 32.9 nM | 14 nM | <25% | < 100 nM | COc1cc2nn(C3CCN(C(=O)C4CCN(Cc5ccc6c(c5)C(=O)N(C5CCC(=O)NC5=O)C6=O)CC4)CC3)cc2cc1NC(=O)c1cccc(C(F)(F)F)n1 (centres unmarked) [II-16] |
| 2.32 nM | 22.7 nM |  |  | Cc1cccc(C(=O)Nc2cc3cn(C4CC5(CCN(C(=O)C6CCN(c7ccc8c(c7)C(=O)N([C@@H]7CCC(=O)NC7=O)C8=O)CC6)CC5)C4)nc3cc2C(C)(C)O)n1 [Compound I-64] |
| 20.5 nM | 14.2 nM |  | < 100 nM | COc1cc2nn(C3CCN(C4CC5(CCN(c6ccc7c(c6)C(=O)N(C6CCC(=O)NC6=O)C7=O)CC5)C4)CC3)cc2cc1NC(=O)c1cccc(C(F)(F)F)n1 (centres unmarked) [II-12] |
| 3.9 nM | 13.3 nM |  |  | COc1cc2nn(C3CC4(CCN(C(=O)C5CCN(c6ccc7c(c6)C(=O)N(C6CCC(=O)NC6=O)C7=O)CC5)CC4)C3)cc2cc1NC(=O)c1cccc(N2CC3CC2CO3)n1 (centres unmarked) [Compound I-52] |
| 1.16 nM | 12.4 nM |  |  | COc1cc2nn(C3CC4(CCN(C(=O)C5CCN(c6ccc7c(c6)C(=O)N(C6CCC(=O)NC6=O)C7=O)CC5)CC4)C3)cc2cc1NC(=O)c1coc(-c2ccnc(C)c2)n1 (centres unmarked) [Compound I-36] |
| > 1000 nM | 20.7 nM |  |  | COc1cc2nn(C3CC4(CCN(C(=O)C5CCN(c6ccc7c(c6)C(=O)N(c6ccc(=O)[nH]n6)C7=O)CC5)CC4)C3)cc2cc1NC(=O)c1cccc(C(F)(F)F)n1 [Compound I-43] |
| 32.8 nM | 34 nM |  |  | O=C1CCC(N2C(=O)c3ccc(N4CCN(C(=O)CN5CCC(n6cc7cc(NC(=O)c8cccc(C(F)(F)F)n8)c(OC(F)(F)F)cc7n6)CC5)CC4)cc3C2=O)C(=O)N1 (centres unmarked) [II-2] |
| 2.41 nM | 32.1 nM |  |  | CC(C)(O)c1cc2nn(C3CC4(CCN(C(=O)C5CCN(c6ccc7c(c6)C(=O)N([C@H]6CCC(=O)NC6=O)C7=O)CC5)CC4)C3)cc2cc1NC(=O)c1cccc(C(F)(F)F)n1 [Compound I-63] |
| 44.6 nM | 30 nM |  |  | COc1cc2nn(C3CC4(CCN(C(=O)C5CCC6(CC5)CN(c5ccc7c(c5)C(=O)N(C5CCC(=O)NC5=O)C7=O)C6)CC4)C3)cc2cc1NC(=O)c1cccc(C(F)(F)F)n1 (centres unmarked) [Compound I-26] |
| 149 nM | 5.33 nM |  |  | COc1cc2nn(C3CC4(CCN(C5CCN(C(=O)c6ccc7c(c6)C(=O)N(C6CCC(=O)NC6=O)C7=O)CC5)CC4)C3)cc2cc1NC(=O)c1cccc(C(F)(F)F)n1 (centres unmarked) [Compound I-51] |
| 22.7 nM | 39.7 nM |  |  | COc1cc2nn(C3CC4(CCN(C(=O)C5(F)CCN(c6ccc7c(c6)C(=O)N(C6CCC(=O)NC6=O)C7=O)CC5)CC4)C3)cc2cc1NC(=O)c1cccc(C(F)(F)F)n1 (centres unmarked) [Compound I-34] |
| 1.78 nM | 8.1 nM |  |  | COc1cc2nn(C3CCC4(CC3)CN(C(=O)C3CCN(c5ccc6c(c5)C(=O)N(C5CCC(=O)NC5=O)C6=O)CC3)C4)cc2cc1NC(=O)c1cccc(C(F)(F)F)n1 (centres unmarked) [Compound I-19] |
| 9.99 nM | 8.2 nM | 75~100% | < 100 nM | CC(C)(O)c1cc2nn(C3CCN(CC(=O)N4CCN(c5ccc6c(c5)C(=O)N(C5CCC(=O)NC5=O)C6=O)CC4)CC3)cc2cc1NC(=O)c1cccc(C(F)(F)F)n1 (centres unmarked) [II-6] |
| 2.75 nM | 40.5 nM |  |  | COc1cc2nn(C3CC4(CCN(C(=O)[C@H]5CC[C@H](Nc6ccc7c(c6)C(=O)N([C@@H]6CCC(=O)NC6=O)C7=O)CC5)CC4)C3)cc2cc1NC(=O)c1cccc(C(F)(F)F)n1 [Compound I-60] |
| 11.2 nM | 23.6 nM |  |  | COc1cc2nn(C3CC4(CCC(C(=O)N5CCN(c6ccc7c(c6)C(=O)N(C6CCC(=O)NC6=O)C7=O)CC5)CC4)C3)cc2cc1NC(=O)c1cccc(C(F)(F)F)n1 (centres unmarked) [Compound I-20] |
| 9.79 nM | 13.4 nM |  |  | COc1cc2nn(C3CC4(CCN(C(=O)C5CCN(c6ccc7c(c6)C(=O)N(C6CCC(=O)NC6=O)C7=O)CC5)CC4)C3)cc2cc1NC(=O)c1cnn2ccc(N3CCN(C)CC3)nc12 (centres unmarked) [Compound I-49] |
| 1.16 nM | 17 nM |  |  | COc1cc2nn(C3CC4(CCN(C(=O)C5CCN(c6ccc7c(c6)C(=O)N(C6CCC(=O)NC6=O)C7=O)CC5)CC4)C3)cc2cc1NC(=O)c1cnn2ccc(N3C[C@H]4C[C@@H]3CO4)nc12 (some centres unmarked) [Compound I-44] |
| 16.3 nM | 74 nM |  |  | COc1cc2nn(C3CC4(CCN(C(=O)[C@H]5CC[C@H](C(=O)N[C@H](C(=O)N6C[C@H](O)C[C@H]6C(=O)N[C@@H](C)c6ccc(-c7scnc7C)cc6)C(C)(C)C)CC5)CC4)C3)cc2cc1NC(=O)c1cccc(C(F)(F)F)n1 [Compound I-29] |
| 3.64 nM | 16 nM | 75~100% | < 100 nM | COc1cc2nn(C3CC4(CCN(C(=O)[C@H]5CC[C@H](CNc6ccc7c(c6)C(=O)N(C6CCC(=O)NC6=O)C7=O)CC5)CC4)C3)cc2cc1NC(=O)c1cccc(C(F)(F)F)n1 (some centres unmarked) [Compound I-3] |

| SMILES | DC50 [1] | IC50 ([2]; Table 2, substrate FAM-P8 3 μM) | IRAK4 degradation rate 24 hours after administration of the compounds with a concentration of 1 μM [1] | IC50 ([2]; Table 1, class symbols) |
| --- | --- | --- | --- | --- |
| COc1cc2nn(C3CC4(CCN(C(=O)C5CCN(c6ccc7c(c6)C(=O)N([C@H]6CCC(=O)NC6=O)C7=O)CC5)CC4)C3)cc2cc1NC(=O)c1cccc(C(F)(F)F)n1 [Compound I-65] | 3.71 nM | 26.3 nM |  |  |
